Reference: patent US20230128114A1, “METHODS AND COMPOSITIONS FOR TREATING OR PREVENTING AN INFLAMMATORY CONDITION” (priority 2020, published 2023)

Key:
[1] = test system: LPS-induced pulmonary inflammation; assay: LPS-induced pulmonary inflammation: lung histopathology lesion score; assay type: in vivo, C57BL/B6 mice
Protocol: (§1) Male C57BL/B6 mice weighing 10-20 g were used. Vehicle and active agents (i.e., CBD and hydroxychloroquine) alone or in combination were administered intraperitoneally (IP) at 1 hour before LPS (˜80 mg/kg) was administered intratracheally. 24 hours after LPS injection, mice were anaesthetized with pentoparbital and 0.5 mL of PBS was administered twice through a tracheal cannula after which approximately 0.6 mL of broncheoalveolar lavage fluid (BALF) was obtained. The BALF was assayed for IL-1β, TNF-α, MCP-1(MCAF) and CXCL-1 by Luminex. ANOVA followed by Dunnett's test was applied for comparison between vehicle and treatment groups. p<0.05 was considered significant.
In a separate test group of animals with pulmonary inflammation induced as detailed above, lungs were harvested at termination (five lobes per lung) and fixed in 10% neutral buffered formalin for histopathology. Samples were sectioned at 4-6 μm and stained with hematoxylin and eosin (H&E) to examine inflammatory lesions as described by Shackleford et al. (2002, Toxicologic Pathology, 30(1): 93-96). Briefly, a score of 0 corresponds to not present, and a score of 5 indicates a severe/high number of lesions. Scores were averaged across lobes for each animal and then across animals for each treatment group.

[2] = test system: LPS-induced production of inflammatory cytokines; assay: LPS-induced sepsis in mice: synergy analysis (relative inhibition of cytokine release, Excess over Bliss); assay type: in vivo, C57BL/6 mice; conditions: for IFN-γ, relative inhibition of cytokine release / IL-1β, relative inhibition of cytokine release / IL-6, relative inhibition of cytokine release / IL-12(p70), relative inhibition of cytokine release / TNF-α, relative inhibition of cytokine release: HCQ 100 mg/kg, alone or combined, observed
Protocol: Male C57BL/6 mice weighing 10-20 g were used. Vehicle and active agents (i.e., CBD and hydroxychloroquine) alone or in combination were administered intraperitoneally (IP) (Table 4) or orally (Table 5) at 1 hour before LPS (100 μg/100 μL/mouse) injected intravenously (IV). At 2 hours after LPS injection, blood was collected from all mice by cardiac puncture, sera processed and assayed for biomarkers using either the Th17-plex for IL-1β, IL-2, IL-10, IL-12 (p70), IFN-γ and TNF-α by Luminex, plus IL-6 and D-dimer by ELISA, or the 23-plex for IL-1α, IL-1β, IL-2, IL-3, IL-4, IL-5, IL-6, IL-9, IL-10, IL-12(p40), IL-12(p70), IL-13, IL-17A, Eotaxin, G-CSF, GM-CSF, IFN-γ, KC, MCP-1(MCAF), MIP-1α, MIP-1β, RANTES, and TNF-α by Luminex, plus IL-6 by ELISA. ANOVA followed by Dunnett's test was applied for comparison between vehicle and treatment groups. p<0.05 is considered significant.
For synergy analysis, data were baseline subtracted using the cytokine levels of sham treated mice (i.e., no LPS injection), before normalising the values for each cytokine relative to maximum values across the groups. The normalised values were used to calculate the relative inhibition where a value of 1 represents complete inhibition and a value of 0 represents no inhibition. Synergy was calculated using the statistical methods described elsewhere herein.
Drug synergy was determined using the Bliss Independence method where the predicted effect of the drug combination is calculated using the equation: […]

TNBS-induced colitis = assay: TNBS-induced colitis; assay type: in vivo, BALB/c mice; conditions: for Relative reduction in Colon to body weight ratio / Relative reduction in Total Colitis Index / Macroscopic damage score, relative reduction / Stool consistency score, relative reduction / MPO, relative reduction: HCQ 2.5 mg/kg, alone or combined; for Relative reduction in Total Colitis Index: histology of distal colon; for Macroscopic damage score, relative reduction / Stool consistency score, relative reduction / MPO, relative reduction: observed; for MPO, relative reduction: colon tissue
Description: Male BALB/c were used as an in vivo model of colitis, induced by intracolonic administration of 2,4,6-trinitrobenzene sulfonic acid (TNBS) in 50% ethanol, as previously described by Antoniou et al. (2016, Annals of Medicine and Surgery, 11: 9-15). Briefly, the ethanol disrupts the intestinal barrier, permitting TNBS to interact with colon proteins. Interaction of TNBS with high-molecular weight proteins renders them immunogenic, leading to Th1 mediated inflammation, which is causative of symptoms include inconsistent stool formation and blood in the faeces.
Vehicle and active agents (i.e., CBD and hydroxychloroquine) alone or in combination were administered intraperitoneally (IP) once a day starting from Day 1 (i.e., 24 hours before TNBS) to Day 4, for a total of 4 consecutive days (Days 1-4). On the Day of TNBS challenge (i.e., Day 2), test articles and vehicle were given 2 hrs before TNBS.
Colon tissues were harvested in all animals at termination. Colon samples were taken at 0.5, 2, and 3.5 cm from the anus, fixed in formalin, and then embedded in paraffin blocks. Four-micrometer tissue sections were cut and stained with H&E for histological analysis in accordance with the method of Dieleman et al. (1998, Clinical Experimental Immunology, 114: 385-391). Histological criteria included: abnormalities of mucosal architecture, extent of inflammation, erosion or ulceration, epithelial regeneration, and the percentage involvement by the disease process. The scoring was based on the findings of the observers by examining three sections from each colon per animal. Total score for colitis (Total Colitis Index) were added, resulting in a combined histological score range from 0 to 60.
Other endpoint measures of stool consistency score (i.e., 0—normal stools, 1, soft but still formed stools, 2—very soft stools, 3—diarrhoea), faecal occult blood score (i.e., 0-negative hemoccult, 1—positive hemoccult, 2—blood traces in stool visible, 3—rectal bleeding), colon weight, colon macroscopic damage score (a composite of adhesions, strictures, ulcers/inflammations and wall thickness) and myeloperoxidase levels in the colon tissue were also assessed. The data from each of these endpoints was baseline subtracted using the equivalent measures from sham treated mice (i.e., no TNBS) and reduction in any measure calculated as a relative reduction. Synergy was calculated using the statistical methods described elsewhere herein.

[3] = test system: LPS-induced pulmonary inflammation; assay: LPS-induced pulmonary inflammation: BALF white blood cell count; assay type: in vivo, C57BL/B6 mice; conditions: CBD 10 mg/kg, HCQ 2.5 mg/kg, alone or combined
Protocol: as §1
BALF collected from mice were also analysed for white blood cell (WBC) count using an automatic haematology analyser. Cell counts were normalised using sham treated mice, and analysed relative to the highest values across the groups (Table 27).

[4] = CBD 10 mg/kg, HCQ 25 mg/kg, alone or combined, pulmonary lesion score
[5] = CBD 10 mg/kg alone, 1 = complete inhibition

SMILES	Relative reduction in lesion score [1, 4]	IFN-γ, relative inhibition of cytokine release ([2]; CBD 10 mg/kg)	IL-1β, relative inhibition of cytokine release ([2]; CBD 10 mg/kg)	IL-6, relative inhibition of cytokine release ([2]; CBD 10 mg/kg)	IL-12(p70), relative inhibition of cytokine release ([2]; CBD 10 mg/kg)	TNF-α, relative inhibition of cytokine release ([2]; CBD 10 mg/kg)	IL-6, relative inhibition of cytokine release ([2]; CBD 25 mg/kg)	Relative reduction in Colon to body weight ratio (TNBS-induced colitis; CBD 1 mg/kg)	Relative reduction in Total Colitis Index (TNBS-induced colitis; CBD 1 mg/kg)	Macroscopic damage score, relative reduction (TNBS-induced colitis; CBD 1 mg/kg)	Stool consistency score, relative reduction (TNBS-induced colitis; CBD 1 mg/kg)	MPO, relative reduction (TNBS-induced colitis; CBD 1 mg/kg)	Relative reduction in white blood cell counts: Neutrophil [3]	Relative reduction in white blood cell counts: WBC [3]	other results
C=C(C)[C@@H]1CCC(C)=C[C@H]1c1c(O)cc(CCCCC)cc1O [CBD, cannabidiol]	0.29	0.00	0.34	0.14	0.00	0.00	0.03	0.373	0.25	0.10	0.17	0.34	0.25	0.27	Relative reduction in lesion score ([1]; CBD 1 mg/kg): 0.18; Relative inhibition of IFN-γ release in vivo [2, 5]: 0.00; Relative inhibition of IL-6 release in vivo [2, 5]: 0.14; Relative inhibition of IL-12(p70) release in vivo [2, 5]: 0.00; Relative inhibition of TNF-α release in vivo [2, 5]: 0.00; Relative inhibition of IL-6 release in vivo ([2]; CBD 25 mg/kg alone): 0.03; Colon tissue histology (H&E, 100×), FIG. 3 (TNBS-induced colitis; CBD 1 mg/kg): inflammatory cell infiltration in submucosal edema
CCN(CCO)CCCC(C)Nc1ccnc2cc(Cl)ccc12 (stereo not drawn) [HCQ]	0.37	0.74	0.01	0.22	0.72	0.55	0.22	0.287	0.27	0.05	0.00	0.00	0.10	0.11	Relative reduction in lesion score ([1]; HCQ 2.5 mg/kg): 0.21; Relative inhibition of IFN-γ release in vivo ([2]; HCQ 25 mg/kg alone): 0.57; Relative inhibition of IL-12(p70) release in vivo ([2]; HCQ 25 mg/kg alone): 0.56; Relative inhibition of TNF-α release in vivo ([2]; HCQ 25 mg/kg alone): 0.33; Relative inhibition of IL-6 release in vivo ([2]; HCQ 25 mg/kg alone (Table 21)): 0.17; Relative inhibition of IL-6 release in vivo ([2]; HCQ 25 mg/kg alone (Table 23)): 0.17; Colon tissue histology (H&E, 100×), FIG. 3 (TNBS-induced colitis; hydroxychloroquine 2.5 mg/kg): mild abnormality, cyctic dilation and aberrant crypts
